From doi:10.1101/2021.06.01.446583v1 (biorxiv, 2021)

Assays:
[1] = system: Fp231; assay: CNP release at […] nm, Michaelis-Menten non-linear fit; assay type: biochemical, uncultured Paraglaciecola sp.; details: 0.1-4 mM substrate, 2 nM enzyme
[2] = system: Fp231; assay: fucose release by HPAEC-PAD, Michaelis-Menten non-linear fit; assay type: biochemical, uncultured Paraglaciecola sp.; details: 0.1-4 mM substrate, 2 nM enzyme

| Km [1] [µM] | Km [2] [µM] | Compound |
| --- | --- | --- |
| 140 ± 10 |  | C[C@@H]1O[C@@H](Oc2ccc([N+](=O)[O-])cc2Cl)[C@@H](O)[C@H](O)[C@@H]1O [CNP-Fuc, 2-chloro-4-nitrophenyl-α-L-fucopyranoside] |
|  | 660 ± 50 | CC(=O)N[C@H]1C(O)O[C@H](CO)[C@@H](O[C@@H]2O[C@@H](C)[C@@H](O)[C@@H](O)[C@@H]2O)[C@@H]1O (stereo partly drawn) [Fuc(α1,4)GlcNAc] |
